According to PMC12163635, “Synthetic Retinoids for the Modulation of Genomic and Nongenomic Processes in Neurodegenerative Diseases” (ACS Omega, 2025):
“Also recorded” adds a separate entry of the source.

What was measured:
[1] = test system: Sil-15 cells containing a RARE driving a lacZ reporter; assay: X-Gal-based RA reporter assay (genomic response); type: cell-based; set-up: genomic response Emax (±95% CI): unit not given here; settings: for genomic response Emax (±95% CI) / EC50: Sil-15 reporter cells; for genomic response Emax (±95% CI): absorbance at 650 nm; for EC50: read-out: genomic response EC50 (±95% CI), overnight, 10^–6 to 10^–14 M
Excerpt: Following chemical design and synthesis, the synthetic retinoid library was screened for genomic and nongenomic biological activities and compared to the response of the endogenous retinoid, ATRA. In these assays, the EC50 value represented the concentration of retinoid that gave half-maximal response (potency), while the E max value represented the maximum response achievable from the retinoid (efficacy).
The transcriptional genomic activity of the retinoids was quantified using Sil-15 cells containing a RARE driving a lacZ reporter. […] Twenty-two of the synthetic retinoids were effective in inducing genomic activity. […] In addition, the retinoids varied in their efficacies.
The Sil-15 cell line was used in the X-gal RA reporter assay described below. The cells were grown in Dulbecco’s modified Eagle’s medium (DMEM) containing 10% fetal bovine serum (FCS) (Invitrogen/Gibco), 0.6% penicillin-streptomycin (Gibco) and 0.8 mg/mL G418 sulfate (Sigma) for selection. They were maintained in a humidified atmosphere containing 5% CO2 at 37 °C. The medium was changed three times a week and the cells were passaged at 70% confluence using 0.05% trypsin-EDTA.
Sil-15 cells are F9 teratocarcinoma cells stably transfected with a plasmid containing the LacZ gene under the control of a DR5-type RA response element (RARE). The reporter cell line was used to detect the transcriptional genomic activity of ATRA and other retinoids by colorimetrically quantifying the insoluble blue product generated by β-galactosidase from X-gal during the assay. The assay was performed by plating 100,000 cells per well in the 0.1% gelatin-coated 96-well plates and leaving them to attach overnight. The ATRA/retinoids dilutions ranging from 10^–6 to 10^–14 M were incubated on the reporter cells overnight at 37 °C, in 5% CO2. A standard curve of ATRA was included in each experiment to ensure the reproducibility of the results between assays performed on different days. All the assays for ATRA as well as the retinoids were quantified in triplicate. Serial dilutions of retinoids were prepared from a stock solution under red/orange light. The stock solutions prepared in DMSO for each retinoid varied depending on the solubility of each compound. Each stock was stored at −20 °C and protected from light. The next day, Sil-15 cells were washed with PBS, fixed with 1% glutaraldehyde and 1 mM MgCl2 solution for 15 min, and developed in X-gal developing solution (0.2% X-Gal, 1 mM MgCl2, 3.3 mM potassium ferricyanide and 3.3 mM potassium ferrocyanide in PBS). The plates were read on an E max microplate reader (Molecular Devices) at 650 nm.
(§1) All data are presented as mean ± SEM of three independent experiments with biological triplicates. Statistical analyses were performed in Microsoft Office Excel 2019 or GraphPad Prism 7.0c version (Prism, GraphPad Software, San Diego, CA). Neurite outgrowth data were analyzed by one-way ANOVA with Newman-Keuls multiple comparison test as appropriate; P value <0.05 was considered statistically significant. *P < 0.05, **P < 0.01. Data for X-Gal and ERK1/2 phosphorylation were analyzed using sigmoidal dose–response analysis of log (agonist) versus response curve (stimulation).

[2] = test system: ERK1/2 phosphorylation in SH-SY5Y cells; assay: ERK1/2 phosphorylation (nongenomic response), AlphaScreen SureFire; type: cell-based, human; set-up: nongenomic response Emax (±95% CI): unit not given here; settings: for EC50: Homo sapiens, read-out: nongenomic response EC50 (±95% CI); for nongenomic E max compared with ATRA: nonoverlapping 95% CI
Experimental: After screening the retinoids for genomic responses, they were tested for their nongenomic ability to rapidly phosphorylate ERK1/2 in the SH-SY5Y cell line. ATRA is known as a potent activator of ERK1/2 − and was used as the standard for comparison. […] The efficacies of the remaining seven retinoids were similar to ATRA.
(§2) SH-SY5Y cell line as used in ERK phosphorylation and neurite outgrowth assays described below. The cells were grown in DMEM containing 10% FCS at 37 °C with 5% CO2. The medium was changed three times a week and the cells were passaged at 70% confluence using 0.05% trypsin-EDTA.
To quantify ERK1/2 phosphorylation, SH-SY5Y cells (100,000 cells/well) were plated onto 96-well plates and serum-starved for 24 h in DMEM. Cells were assayed in serum-free DMEM and stimulated for 60 min at 37 °C in a humidified atmosphere. Retinoids were tested at concentrations ranging from 10 to 4 to 10–11 M and at a final concentration of 0.1% DMSO. At the end of the assay, the medium was removed, and cells were lysed with lysis buffer supplied in the AlphaScreen SureFire ERK1/2 kit (PerkinElmer). The assay was performed in 384-well white Proxiplates according to the manufacturer’s instructions and using the beads supplied in the protein A general IgG detection kit (PerkinElmer). Briefly, 4 μL samples were incubated with 7 μL of the freshly prepared mixture containing donor and acceptor beads. Plates were incubated at room temperature and read with the Envision system (PerkinElmer Life Sciences) using AlphaScreen settings.
as §1

[3] = test system: SH-SY5Y cells; assay: Neurite outgrowth; type: cell-based, human; settings: 5 days; for induction of neurite outgrowth compared with ATRA: 10 nM; for fold induction at 0.01 µM: Homo sapiens, SH-SY5Y, 120 h, read-out: fold increase in neurite outgrowth
Experimental: Following the characterization of retinoids for their genomic and nongenomic activities, the ability of retinoids to differentiate and induce neurite outgrowth in the neuroblastoma cell line, SH-SY5Y cells, was examined (Figure ). Neurite outgrowth can be induced in this cell line by ATRA at 10 μM.
as §2
SH-SY5Y cells were plated at 10,000 cells/well in 12-well plates containing 16 mm acid-treated/poly L-lysine-coated glass coverslips. After 24 h, retinoids were added to the medium and tested at two different concentrations, 10 μM and 10 nM, with a final DMSO concentration of 0.01 or 0.0001%, respectively. The plates were incubated for 5 days at 5% CO2/37 °C. All retinoid concentrations were tested in triplicate. Cells were fixed using 4% paraformaldehyde and stained for β-III tubulin (1:1000; Sigma). For each neurite outgrowth experiment, 3 coverslips (in 3 wells) were used. ImageJ software with the NeuronJ plugin was used to quantify neurite outgrowth on stained cells in each of the 10 randomly selected images of each coverslip taken using a Nikon Eclipse E400 fluorescence microscope. The average neurite length was calculated for each image by dividing total neurite length by the total number of neurites per image.
as §1

[4] = 10 nM compound, in comparison to nontreated cells

Question: With `CC1(C)CCC(C)(C)c2cc(C#Cc3ccc(C(=O)O)nc3)ccc21` [Compound 24, 5-[2-(5,5,8,8-Tetramethyl-5,6,7,8-tetrahydronaphthalen-2-yl)ethynyl]pyridine-2-carboxylic Acid] as the compound, how does the “genomic response Emax (±95% CI)” value [1] read?
Answer: 207 (±19.5)

Question: What about the “genomic E max compared with ATRA” value ([1]; nonoverlapping 95% CI) of the same compound?
Answer: significantly higher E max than ATRA

Question: What about the EC50 [1] of the same compound?
Answer: 0.146 nM

Question: What about the EC50 ([2]; SH-SY5Y cells, 1 h) of the same compound?
Answer: 13.6 nM

Question: And the “induction of ERK1/2 phosphorylation (nongenomic activity)” value ([2]; SH-SY5Y cells, 1 h)?
Answer: showed activity toward the nongenomic pathway

Question: What about the “nongenomic response Emax (±95% CI)” value ([2]; SH-SY5Y cells, 1 h) of the same compound?
Answer: 59.7 (±3.34)

Question: What about the “induction of neurite outgrowth compared with ATRA” value (shortened to “induction … compared with ATRA”) [3] of the same compound?
Answer: significantly induced neurite outgrowth compared to ATRA

Question: What about the fold induction at 0.01 µM [3, 4] of the same compound?
Answer: 2.2

Question: What does the source list for `CC1(C)CCC(C)(C)c2cc(C#Cc3cnc(C(=O)O)cn3)ccc21` [Compound 25, 5-[2-(5,5,8,8-Tetramethyl-5,6,7,8-tetrahydronaphthalen-2-yl)ethynyl]pyrazine-2-carboxylic Acid]?
Answer: genomic response Emax (±95% CI) [1]: 174 (±8.25); genomic EC50 compared with ATRA ([1]; nonoverlapping 95% CI): significantly higher EC50 values than ATRA; EC50 [1]: 3.98 nM; EC50 ([2]; SH-SY5Y cells, 1 h): 20.7 nM; nongenomic response Emax (±95% CI) ([2]; SH-SY5Y cells, 1 h): 27.9 (±1.66); nongenomic E max compared with ATRA [2]: E max values significantly lower than ATRA; induction of neurite outgrowth compared with ATRA [3]: induced neurite outgrowth but not significantly compared to ATRA

Question: Which results are given for `Cc1cc2c(cc1C#Cc1ccc(C(=O)O)cn1)C(C)(C)CCC2(C)C` [Compound 26, 6-[2-(3,5,5,8,8-Pentamethyl-5,6,7,8-tetrahydronaphthalen-2-yl)ethynyl]pyridine-3-carboxylic Acid]?
Answer: genomic response Emax (±95% CI) [1]: 177 (±6.65); genomic EC50 compared with ATRA ([1]; nonoverlapping 95% CI): significantly lower EC50 than ATRA; EC50 [1]: 0.427 nM; EC50 ([2]; SH-SY5Y cells, 1 h): 459 nM; nongenomic response Emax (±95% CI) ([2]; SH-SY5Y cells, 1 h): 56.4 (±6.36); nongenomic E max compared with ATRA [2]: E max values significantly higher than ATRA; fold increase in neurite outgrowth [3, 4]: no response; induction of neurite outgrowth compared with ATRA [3]: unable to induce neurite outgrowth

Question: `COc1cc2c(cc1C#Cc1ccc(C(=O)O)cn1)C(C)(C)CCC2(C)C` [Compound 27, 6-[2-(3-Methoxy-5,5,8,8-tetramethyl-5,6,7,8-tetrahydronaphthalen-2-yl)ethynyl]pyridine-3-carboxylic Acid] was tested. Which “genomic response Emax (±95% CI)” value [1] did it give?
Answer: 176 (±8.55)

Question: What about the “genomic EC50 compared with ATRA” value ([1]; nonoverlapping 95% CI) of the same compound?
Answer: significantly higher EC50 values than ATRA

Question: What about the EC50 [1] of the same compound?
Answer: 3.16 nM

Question: What about the “induction of ERK1/2 phosphorylation (nongenomic activity)” value ([2]; SH-SY5Y cells, 1 h) of the same compound?
Answer: lacked nongenomic activity

Question: What about the “nongenomic response EC50 (±95% CI)” value ([2]; SH-SY5Y cells, 1 h) of the same compound?
Answer: no response

Question: What about the “nongenomic response Emax (±95% CI)” value ([2]; SH-SY5Y cells, 1 h) of the same compound?
Answer: no response

Question: What about the fold induction at 0.01 µM [3, 4] of the same compound?
Answer: 1.7

Question: For `Cc1cc2c(cc1C#Cc1ncc(C(=O)O)cn1)C(C)(C)CCC2(C)C` [Compound 28, 2-[2-(3,5,5,8,8-Pentamethyl-5,6,7,8-tetrahydronaphthalen-2-yl)ethynyl]pyrimidine-5-carboxylic Acid], which “genomic response Emax (±95% CI)” value [1] is on record?
Answer: 192 (±12.7)

Question: What about the EC50 [1] of the same compound?
Answer: 0.826 nM

Question: And the EC50 ([2]; SH-SY5Y cells, 1 h)?
Answer: 5.42 nM

Question: And the “nongenomic response Emax (±95% CI)” value ([2]; SH-SY5Y cells, 1 h)?
Answer: 44.7 (±3.15)

Question: And the “induction … compared with ATRA” value [3]?
Answer: induced neurite outgrowth but not significantly compared to ATRA

Question: `COc1cc2c(cc1C#Cc1ncc(C(=O)O)cn1)C(C)(C)CCC2(C)C` [Compound 29, 2-[2-(3-Methoxy-5,5,8,8-tetramethyl-5,6,7,8-tetrahydronaphthalen-2-yl)ethynyl]pyrimidine-5-carboxylic Acid] was tested. Which “genomic response Emax (±95% CI)” value [1] did it give?
Answer: 266 (±110)

Question: What about the “genomic EC50 compared with ATRA” value ([1]; nonoverlapping 95% CI) of the same compound?
Answer: significantly higher EC50 values than ATRA

Question: And the EC50 [1]?
Answer: 603 nM

Question: What about the EC50 ([2]; SH-SY5Y cells, 1 h) of the same compound?
Answer: 87.4 nM

Question: And the “nongenomic response Emax (±95% CI)” value ([2]; SH-SY5Y cells, 1 h)?
Answer: 37.5 (±2.12)

Question: And the “nongenomic E max compared with ATRA” value [2]?
Answer: E max values significantly lower than ATRA

Question: And the “induction … compared with ATRA” value [3]?
Answer: induced neurite outgrowth but not significantly compared to ATRA

Question: What does the source list for `CC1(C)CCC(C)(C)c2nc(C#Cc3ccc(C(=O)O)cc3)cnc21` [Compound 30, 4-[2-(5,5,8,8-Tetramethyl-5,6,7,8-tetrahydroquinoxalin-2-yl)ethynyl]benzoic Acid]?
Answer: genomic EC50 compared with ATRA ([1]; nonoverlapping 95% CI): significantly lower EC50 than ATRA; EC50 ([2]; SH-SY5Y cells, 1 h): 8.54 nM; induction of ERK1/2 phosphorylation (nongenomic activity) ([2]; SH-SY5Y cells, 1 h): showed activity toward the nongenomic pathway; nongenomic response Emax (±95% CI) ([2]; SH-SY5Y cells, 1 h): 91.6 (±3.21); nongenomic E max compared with ATRA [2]: E max values significantly higher than ATRA; induction of neurite outgrowth compared with ATRA [3]: significantly induced neurite outgrowth compared to ATRA; also recorded: even higher activity compared to EC23 and GZ25; fold induction at 0.01 µM [3, 4]: 2.3

Question: Which “genomic EC50 compared with ATRA” value ([1]; nonoverlapping 95% CI) does the source give for `CC1(C)CCC(C)(C)c2nc(C#Cc3ccc(C(=O)O)cc3F)cnc21` [Compound 31, 3-Fluoro-4-[2-(5,5,8,8-tetramethyl-5,6,7,8-tetrahydroquinoxalin-2-yl)ethynyl]benzoic Acid] here?
Answer: significantly lower EC50 than ATRA

Question: What about the EC50 [1] of the same compound?
Answer: 0.382 nM

Question: What about the EC50 ([2]; SH-SY5Y cells, 1 h) of the same compound?
Answer: 58.4 nM

Question: What about the “nongenomic response Emax (±95% CI)” value ([2]; SH-SY5Y cells, 1 h) of the same compound?
Answer: 91.6 (±3.84)

Question: What about the “nongenomic E max compared with ATRA” value [2] of the same compound?
Answer: E max values significantly higher than ATRA

Question: And the “induction … compared with ATRA” value [3]?
Answer: induced neurite outgrowth but not significantly compared to ATRA
